The source of these data is patent USRE42014E1, “Pharmaceutical compositions” (Novartis AG, priority 1996, dated 2010).

For series [1] the following is noted: per 100 ml of a 10% fat emulsion.
Procedure: (§1) The solubilization efficacy was determined by filtering the drug loaded fat emulsion through a 0.2 micron Nuclepore filter. Drug compound which is not solubilized was held back by the filter and determined gravimetrically and/or by HPLC measurements.
A short description of series [2]: Solubilization of active agent in fat emulsions: filtration through 0.2 micron Nuclepore filter, retained drug determined gravimetrically and/or by HPLC.
Procedure: as §1
Further sodium oleate was used, instead of POPG.Na.
Propylene glycol was then used to replace a part of the ethanol content.

SMILES strings stand for the structures.

For `C/C=C/C[C@@H](C)C(=O)[C@H]1C(=O)N[C@@H](C(C)C)C(=O)N(C)CC(=O)N(C)[C@@H](CC(C)C)C(=O)N[C@@H](C(C)C)C(=O)N(C)[C@@H](CC(C)C)C(=O)N[C@@H](C)C(=O)N[C@H](C)C(=O)N(C)[C@@H](CC(C)C)C(=O)N(C)[C@@H](CC(C)C)C(=O)N(C)[C@@H](C(C)C)C(=O)N1C` [PSC 833, [3′-desoxy-3′-oxo-MeBmt]^1-[Val]^2-Ciclosporin], the “PSC 833 solubilized by 100 ml of a 10% fat emulsion” value in series [1] is “up to 2 gram”. For the same compound, in series [2] (plain PSC 833 solution in ethanol injected into a fat emulsion, after 30 minutes, no stabiliser), the “PSC 833 solubilized” value was 87%. Further, the “PSC 833 retained on the filter” value in series [2] (with POPG.Na or sodium oleate, after 5 minutes, determined by HPLC) is reported as “less than 0.1%”.
